Assay results from PubChem BioAssay AID1919002 (Molecular Pharmacology Branch, DTP, NCI, 2023).

Test system: 743489-274-T-PDC complex spheroid growth
Test: Anticancer human tumor 743489-274-T-PDC patient-derived renal cell carcinoma cell line growth inhibition [AhR]
Details: for IC50: curve of first compound; for viability, T/C: stronger effect = lower value
How it was run: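 Agents were dosed in half-log steps down from roughly clinical Cmax, or from 10 microM where Cmax was unknown, alone and with AhR antagonists. Read-out: percent test/control growth of tumor spheroids containing HUVEC and MSC stromal cells.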

[1] = second compound 0.1 µM, first compound 0.0316 µM
[2] = second compound 0.1 µM, first compound 0.1 µM
[3] = second compound 0.1 µM, first compound 0.316 µM
[4] = second compound 0.1 µM, first compound 1 µM
[5] = second compound 0.316 µM, first compound 0.0316 µM
[6] = second compound 0.316 µM, first compound 0.1 µM
[7] = second compound 0.316 µM, first compound 0.316 µM
[8] = second compound 0.316 µM, first compound 1 µM
[9] = second compound 1 µM, first compound 0.0316 µM
[10] = second compound 1 µM, first compound 0.1 µM
[11] = second compound 1 µM, first compound 0.316 µM
[12] = second compound 1 µM, first compound 1 µM
[13] = second compound 3.16 µM, first compound 0.0316 µM
[14] = second compound 3.16 µM, first compound 0.1 µM
[15] = second compound 3.16 µM, first compound 0.316 µM
[16] = second compound 3.16 µM, first compound 1 µM
[17] = second compound 10 µM, first compound 0.0316 µM
[18] = second compound 10 µM, first compound 0.1 µM
[19] = second compound 10 µM, first compound 0.316 µM
[20] = second compound 10 µM, first compound 1 µM
[21] = second compound 0.1 µM, first compound 3.16 µM
[22] = second compound 0.1 µM, first compound 10 µM
[23] = second compound 0.316 µM, first compound 3.16 µM
[24] = second compound 0.316 µM, first compound 10 µM
[25] = second compound 1 µM, first compound 3.16 µM
[26] = second compound 1 µM, first compound 10 µM
[27] = second compound 3.16 µM, first compound 3.16 µM
[28] = second compound 3.16 µM, first compound 10 µM
[29] = second compound 10 µM, first compound 3.16 µM
[30] = second compound 10 µM, first compound 10 µM
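Further: spheroids exposed to agents for 7 days before readout.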
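Wherever viability, T/C is given: 100% = DMSO vehicle control wells.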

IC50 (second compound 0.1 µM) [µM] | IC50 (second compound 0.316 µM) [µM] | IC50 (second compound 1 µM) [µM] | IC50 (second compound 3.16 µM) [µM] | IC50 (second compound 10 µM) [µM] | Structure (SMILES) | viability, T/C [1] [%] | viability, T/C [2] [%] | viability, T/C [3] [%] | viability, T/C [4] [%] | viability, T/C [5] [%] | viability, T/C [6] [%] | viability, T/C [7] [%] | viability, T/C [8] [%] | viability, T/C [9] [%] | viability, T/C [10] [%] | viability, T/C [11] [%] | viability, T/C [12] [%] | viability, T/C [13] [%] | viability, T/C [14] [%] | viability, T/C [15] [%] | also measured
> 1 | > 1 | > 1 | > 1 | > 1 | CC1COCCN1c1cc(-c2ccnn2C)c2ccnc(-c3ccn[nH]3)c2n1 (stereo not given) + Cc1cncc(-c2nc(NCCc3c[nH]c4ccccc34)c3ncn(C(C)C)c3n2)c1 | 113 | 105 | 100 | 84.5 | 109 | 105 | 95.4 | 80.3 | 116 | 99.8 | 102 | 85 | 122 | 113 | 99.4 | viability, T/C (second compound 0.1 µM, first compound 0.00316 µM): 106%; viability, T/C (second compound 0.1 µM, first compound 0.01 µM): 106%; viability, T/C (second compound 0.316 µM, first compound 0.00316 µM): 99.7%; viability, T/C (second compound 0.316 µM, first compound 0.01 µM): 107%; viability, T/C (second compound 1 µM, first compound 0.00316 µM): 108%; viability, T/C (second compound 1 µM, first compound 0.01 µM): 104%; viability, T/C (second compound 3.16 µM, first compound 0.00316 µM): 120%; viability, T/C (second compound 3.16 µM, first compound 0.01 µM): 126%; viability, T/C [16]: 89.1%; viability, T/C (second compound 10 µM, first compound 0.00316 µM): 116%; viability, T/C (second compound 10 µM, first compound 0.01 µM): 148%; viability, T/C [17]: 143%; viability, T/C [18]: 142%; viability, T/C [19]: 124%; viability, T/C [20]: 109%
9.26 | 7.72 | 9.6 | 8.29 | 7.34 | O=C(C=Cc1cccc(S(=O)(=O)Nc2ccccc2)c1)NO + CC(CO)NC(=O)c1cc(-c2ccc(Cl)cc2)nn(-c2cnn(C)c2)c1=O | 97.6 | 87.1 | 86.9 | 80.3 | 82.4 | 88.5 | 74.4 | 76.9 | 82.5 | 89 | 84 | 75.8 | 82.5 | 80 | 76.2 | viability, T/C [21]: 76.4%; viability, T/C [22]: 47.1%; viability, T/C [23]: 61.8%; viability, T/C [24]: 46.4%; viability, T/C [25]: 62.7%; viability, T/C [26]: 49.4%; viability, T/C [16]: 70.2%; viability, T/C [27]: 59.2%; viability, T/C [28]: 48.3%; viability, T/C [17]: 85.3%; viability, T/C [18]: 87.8%; viability, T/C [19]: 83.2%; viability, T/C [20]: 74.7%; viability, T/C [29]: 66.9%; viability, T/C [30]: 43.9%
3.1 | 3.68 | 3.25 | 2.6 | 2.73 | COc1ccc([C@@H](O)c2cc(-c3ncnc4cc(N5CCOCC5)ccc34)c(F)cc2Cl)nn1 + CC(CO)NC(=O)c1cc(-c2ccc(Cl)cc2)nn(-c2cnn(C)c2)c1=O | 103 | 96.8 | 92.4 | 86 | 86 | 87.8 | 89.4 | 78.2 | 87.9 | 89.4 | 88.2 | 77.9 | 92.3 | 81.7 | 87.3 | viability, T/C [21]: 48.8%; viability, T/C [22]: 28.8%; viability, T/C [23]: 54%; viability, T/C [24]: 25.2%; viability, T/C [25]: 50.7%; viability, T/C [26]: 25.5%; viability, T/C [16]: 73.9%; viability, T/C [27]: 45%; viability, T/C [28]: 25.7%; viability, T/C [17]: 101%; viability, T/C [18]: 92%; viability, T/C [19]: 93.8%; viability, T/C [20]: 79.3%; viability, T/C [29]: 45.5%; viability, T/C [30]: 20.9%
